Laboratory results from US20210355435A1, “CULTURE MEDIUM COMPRISING KETO ACIDS” (Evonik Operations GmbH, priority 2018, published 2021).

Columns and labels:
[1] = test system: CHO cells (subclone DG44); assay: Growth of CHO cells in medium with keto leucine instead of L-leucine; format: cell-based, Chinese hamster; settings: keto leucine as calcium salt instead of L-leucine, up to 178 mg/l, third passage
Experimental: (§1) Antibody producing chinese hamster ovary (CHO) cells (subclone DG44) were cultivated in shake flasks (125 ml or 250 ml with a culture volume of 50 ml or 100 ml respectively) in TC42/CHOMACS CD culture medium (TeutoCell AG) containing 8 mM L-glutamine. The culture medium was prepared by mixing two solutions. The first contained the conventional medium formulation (containing L-leucine and calcium chloride). In the second, the amino acid L-leucine in the culture medium was substituted by keto leucine (178 mg/l) as calcium salt in equimolar quantities. These solutions were mixed in different ratios. The growth of cells cultivated in the different mixtures was compared to cells cultivated in the conventional culture medium.
A corresponds to cells cultivated in a culture medium containing 178 mg/L of keto leucine, B to a mixture containing 30% (v/v) of the keto leucine solution, C to a mixture containing 5% (v/v) of the keto leucine solution and a reference containing only L-leucine.

[2] = test system: CHO cells (subclone DG44); assay: Antibody production in CHO cells with keto leucine instead of L-leucine; format: cell-based, Chinese hamster; settings: keto leucine as calcium salt, reference normalized to 1.0
Experimental: as §1
The concentration of antibody produced by the cells cultivated in the reference culture medium containing L-leucine (Reference) were normalized to 1.0.

CC(C)CC(=O)C(=O)O [keto leucine, alpha-keto isocaproate]
viable cell density versus reference medium with L-leucine [1]: slightly reduced | antibody production with keto leucine instead of L-leucine [2]: L-leucine can be substituted
